Experimental data taken from US11767322B2 (BRISTOL-MYERS SQUIBB COMPANY, priority 2020, dated 2023).
Read-outs that look alike come from different tables or passages of the source.

What was measured:
[1] = target: T1, His-GST-TVMV-hRIPK1(1-324) (Homo sapiens, UniProt Q13546); test: biochemical; assay type: binding; conditions: HTRF probe displacement, 1 h at rt; read-out: RIPK1 IC50
T1 construct: The coding region of human RIPK1(1-324) flanked by NdeI site at 5′ end; made in house; host or cells: Spodoptera frugiperda Sf9 insect cells (baculovirus, Bac-to-Bac)
T1 sequence (Q13546 1-324): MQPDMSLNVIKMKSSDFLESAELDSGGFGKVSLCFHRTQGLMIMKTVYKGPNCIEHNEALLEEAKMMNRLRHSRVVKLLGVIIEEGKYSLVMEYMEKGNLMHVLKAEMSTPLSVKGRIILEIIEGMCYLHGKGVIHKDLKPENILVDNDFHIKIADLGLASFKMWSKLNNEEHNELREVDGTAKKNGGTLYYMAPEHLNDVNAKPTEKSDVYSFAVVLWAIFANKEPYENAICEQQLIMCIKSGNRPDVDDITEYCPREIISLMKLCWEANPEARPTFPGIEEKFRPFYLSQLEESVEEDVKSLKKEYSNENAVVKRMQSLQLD

[2] = test system: MLKL phosphorylation in HT29-L23 human colorectal adenocarcinoma cells; test: MLKL phosphorylation high-content assay; assay type: cell-based; conditions: necroptosis induced with TNFα, SMAC mimetic and Z-VAD, 6 h, maximal inhibition defined by Nec1s
[3] = read-out: pMLKL IC50, HT29-L23 cells
[4] = Homo sapiens, read-out: pMLKL IC50, HT29-L23 cells

Row | Molecule | IC50 [1] | IC50 [2, 3] | IC50 [2, 4] | IC50 ([2]; HT29-L23 cells, read-out: pMLKL IC50)
1 | [2H]C([2H])([2H])c1ccc(-c2ccn3nc(N)nc3c2)c(F)c1C(=O)NCC1(C([2H])(O)c2ccc(F)cc2)CC1 (single isomer, unassigned) [Example 310, 3-(2-amino-[1,2,4]triazolo[1,5-a]pyridin-7-yl)-2-fluoro-N-((1-((4-fluorophenyl) (hydroxy)methyl-d)cyclopropyl)methyl)-6-(methyl-d3)benzamide] | 5.7 nM | 20 nM |  | 
2 | Nc1nc2cc(-c3ccc(OC(F)F)c(C(=O)NCC(F)(F)[C@@H](O)c4ccc(F)cc4)c3F)ccn2n1 [Example 306, (S)-3-(2-amino-[1,2,4]triazolo[1,5-a]pyridin-7-yl)-N-(2,2-difluoro-3-(4-fluorophenyl)-3-hydroxypropyl)-6-(difluoromethoxy)-2-fluorobenzamide] | 11 nM |  | 4.2 nM | 
3 | Nc1nc2cc(-c3ccc(Cl)c(C(=O)NCCC(O)c4ccc(F)cc4)c3F)ccn2n1 (single isomer, unassigned) [Example 79, 3-(2-amino-[1,2,4]triazolo[1,5-a]pyridin-7-yl)-6-chloro-2-fluoro-N-(3-(4-fluorophenyl)-3-hydroxypropyl)benzamide] | 4.8 nM |  | 19 nM | 
4 | [2H]C([2H])([2H])c1ccc(-c2ccn3nc(N)nc3c2)c(F)c1C(=O)NCC1(C(O)c2ccc(F)cc2)CC1 (single isomer, unassigned) [Example 307, 3-(2-amino-[1,2,4]triazolo[1,5-a]pyridin-7-yl)-2-fluoro-N-((1-((4-fluorophenyl) (hydroxy)methyl)cyclopropyl)methyl)-6-(methyl-d3)benzamide] | 9.6 nM |  | 14 nM | 
5 | Nc1nc2cc(-c3ccc(Cl)c(C(=O)NCC(F)(F)C(O)c4cccc(Cl)n4)c3F)ccn2n1 (single isomer, unassigned) [Example 262, 3-(2-amino-[1,2,4]triazolo[1,5-a]pyridin-7-yl)-6-chloro-N-(3-(6-chloropyridin-2-yl)-2,2-difluoro-3-hydroxypropyl)-2-fluorobenzamide] | 14 nM |  | 45 nM | 
6 | Nc1nc2cc(-c3ccc(Cl)c(C(=O)NCC(F)(F)C(O)C4CCC(F)(F)CC4)c3F)ccn2n1 (stereo not drawn) [Example 257, 3-(2-amino-[1,2,4]triazolo[1,5-a]pyridin-7-yl)-6-chloro-N-(3-(4,4-difluorocyclohexyl)-2,2-difluoro-3-hydroxypropyl)-2-fluorobenzamide] | 8.9 nM |  | 5.9 nM | 
7 | Cc1ccc(-c2ccn3nc(N)nc3c2)c(F)c1C(=O)NCC(C)(F)C(O)c1ccc(F)cc1 (single isomer, unassigned) [Example 203, 3-(2-amino-[1,2,4]triazolo[1,5-a]pyridin-7-yl)-2-fluoro-N-(2-fluoro-3-(4-fluorophenyl)-3-hydroxy-2-methylpropyl)-6-methylbenzamide] | 5.6 nM | 2.7 nM |  | 
8 | Cc1ccc(-c2ccn3nc(N)nc3c2)c(F)c1C(=O)NCC(F)(F)C(O)c1c(F)cc(F)cc1F (single isomer, unassigned) [Example 283, 3-(2-amino-[1,2,4]triazolo[1,5-a]pyridin-7-yl)-N-(2,2-difluoro-3-hydroxy-3-(2,4,6-trifluorophenyl)propyl)-2-fluoro-6-methylbenzamide] | 0.5 nM |  | 1 nM | 
9 | Cc1cc(F)c(-c2ccn3nc(N)nc3c2)cc1C(=O)NCC[C@H](O)c1ccc(Cl)cc1 [Example 1, (S)-5-(2-amino-[1,2,4]triazolo[1,5-a]pyridin-7-yl)-N-(3-(4-chlorophenyl)-3-hydroxypropyl)-4-fluoro-2-methylbenzamide] | 1.2 nM |  | 1.3 nM | 
10 | [2H]C([2H])([2H])c1ccc(C(O)C(F)(F)CNC(=O)c2c(C([2H])([2H])[2H])ccc(-c3ccn4nc(N)nc4c3)c2F)cc1 (single isomer, unassigned) [Example 200, 3-(2-amino-[1,2,4]triazolo[1,5-a]pyridin-7-yl)-N-(2,2-difluoro-3-hydroxy-3-(4-(methyl-d3)phenyl)propyl)-2-fluoro-6-(methyl-d3)benzamide] | 4.7 nM |  | 0.8 nM | 
11 | COC(c1ccc(F)cc1)C(F)(F)CNC(=O)c1c(C)ccc(-c2ccn3nc(N)nc3c2)c1F (single isomer, unassigned) [Example 234, 3-(2-amino-[1,2,4]triazolo[1,5-a]pyridin-7-yl)-N-(2,2-difluoro-3-(4-fluorophenyl)-3-methoxypropyl)-2-fluoro-6-methylbenzamide] | 8.4 nM | 3 nM |  | 
12 | Cc1ccc(-c2ccn3nc(N)nc3c2)c(F)c1C(=O)NCCC(O)c1cccc(F)c1 (single isomer, unassigned) [Example 64, 3-(2-amino-[1,2,4]triazolo[1,5-a]pyridin-7-yl)-2-fluoro-N-(3-(3-fluorophenyl)-3-hydroxypropyl)-6-methylbenzamide] | 12 nM | 8 nM |  | 
13 | Cc1ccc(C(O)C(F)(F)CNC(=O)c2c(Cl)ccc(-c3ccn4nc(N)nc4c3)c2F)cc1 (stereo not drawn) [Example 173, 3-(2-amino-[1,2,4]triazolo[1,5-a]pyridin-7-yl)-6-chloro-N-(2,2-difluoro-3-hydroxy-3-(p-tolyl)propyl)-2-fluorobenzamide] | 0.9 nM |  | 0.9 nM | 
14 | Nc1nc2cc(-c3ccc(Cl)c(C(=O)NCCC(O)c4ccc(Cl)cn4)c3F)ccn2n1 (stereo not drawn) [Example 81, 3-(2-amino-[1,2,4]triazolo[1,5-a]pyridin-7-yl)-6-chloro-N-(3-(5-chloropyridin-2-yl)-3-hydroxypropyl)-2-fluorobenzamide] | 24 nM |  | 38 nM | 
15 | [2H]C([2H])([2H])c1ccc(-c2ccn3nc(N)nc3c2)c(F)c1C(=O)NCC(F)(F)C(C)(O)c1ccc(Cl)cc1 (single isomer, unassigned) [Example 252, 3-(2-amino-[1,2,4]triazolo[1,5-a]pyridin-7-yl)-N-(3-(4-chlorophenyl)-2,2-difluoro-3-hydroxybutyl)-2-fluoro-6-(methyl-d3)benzamide] | 7.2 nM | 2.7 nM |  | 
16 | Cc1ccc(-c2ccn3nc(N)nc3c2)c(F)c1C(=O)NCCC(O)C1CCCCC1 (stereo not drawn) [Example 40, 3-(2-amino-[1,2,4]triazolo[1,5-a]pyridin-7-yl)-N-(3-cyclohexyl-3-hydroxypropyl)-2-fluoro-6-methylbenzamide] | 3.8 nM |  | 1.5 nM | 
17 | (R)-3-(2-amino-[1,2,4]triazolo[1,5-a]pyridin-7-yl)-6-cyclopropyl-N-(2,2-difluoro-3-(4-fluorophenyl)-3-hydroxypropyl)-2-fluorobenzamide [Example 305] | 1.6 nM |  |  | 0.6 nM
18 | Cc1ccc(-c2ccn3nc(N)nc3c2)c(F)c1C(=O)NCC(C)(F)C(O)c1ccc(F)cc1 (single isomer, unassigned) [Example 202, 3-(2-amino-[1,2,4]triazolo[1,5-a]pyridin-7-yl)-2-fluoro-N-(2-fluoro-3-(4-fluorophenyl)-3-hydroxy-2-methylpropyl)-6-methylbenzamide] | 13 nM | 2.1 nM |  | 
19 | Nc1nc2cc(-c3ccc(Cl)c(C(=O)NCC(F)(F)C(O)c4cccc(C(F)(F)F)n4)c3F)ccn2n1 (single isomer, unassigned) [Example 255, 3-(2-amino-[1,2,4]triazolo[1,5-a]pyridin-7-yl)-6-chloro-N-(2,2-difluoro-3-hydroxy-3-(6-(trifluoromethyl)pyridin-2-yl)propyl)-2-fluorobenzamide] | 17 nM | 79 nM |  | 
20 | CCc1cc(F)c(-c2ccn3nc(N)nc3c2)cc1C(=O)NCC[C@H](O)c1ccc(Cl)cc1 [Example 157] | 3.1 nM |  | 6.7 nM | 
21 | Nc1nc2cc(-c3ccc(Cl)c(C(=O)NCC(F)(F)C(O)c4cc(F)ccc4F)c3F)ccn2n1 (single isomer, unassigned) [Example 176, 3-(2-amino-[1,2,4]triazolo[1,5-a]pyridin-7-yl)-6-chloro-N-(3-(2,5-difluorophenyl)-2,2-difluoro-3-hydroxypropyl)-2-fluorobenzamide] | 0.3 nM | 1.9 nM |  | 
22 | Nc1nc2cc(-c3ccc(Cl)c(C(=O)NCCC(O)c4ccc(C(F)(F)F)cc4)c3F)ccn2n1 (single isomer, unassigned) [Example 85, 3-(2-amino-[1,2,4]triazolo[1,5-a]pyridin-7-yl)-6-chloro-2-fluoro-N-(3-hydroxy-3-(4-(trifluoromethyl)phenyl)propyl)benzamide] | 2.1 nM | 0.5 nM |  | 
23 | Cc1ccc(-c2ccn3nc(N)nc3c2)c(F)c1C(=O)NCC(F)(F)C(O)c1ccnc(C(F)(F)F)c1 (single isomer, unassigned) [Example 261, 3-(2-amino-[1,2,4]triazolo[1,5-a]pyridin-7-yl)-N-(2,2-difluoro-3-hydroxy-3-(2-(trifluoromethyl)pyridin-4-yl)propyl)-2-fluoro-6-methylbenzamide] | 40 nM | 79 nM |  | 
24 | Cc1cccc(C(O)C(F)(F)CNC(=O)c2c(Cl)ccc(-c3ccn4nc(N)nc4c3)c2F)c1 (stereo not drawn) [Example 175, 3-(2-amino-[1,2,4]triazolo[1,5-a]pyridin-7-yl)-6-chloro-N-(2,2-difluoro-3-hydroxy-3-(m-tolyl)propyl)-2-fluorobenzamide] | 2.7 nM | 7.8 nM |  | 
